Assay results reported in ChEMBL document CHEMBL4334533, “Design, synthesis, and validation of novel nitrogen-based chalcone analogs against triple negative breast cancer” (Eur J Med Chem, 2020).
Activity calls are given as the source filed them. The rule behind the calls is not given here.

Columns and labels:
[1] = Selectivity index, ratio of LD50 for E6/E7 immortalized human HNME cells to IC50 for human MDA-MB-231 cells
MCF7 [2] = test: Up regulation of E-cadherin level in human MCF7 cells up to 10 uM by Western blot analysis; type: functional, cell-based
MDA-MB-231 [3] = test: Antitumor activity against human MDA-MB-231 cells xenografted in athymic nude mouse assessed as the inhibition of tumor growth at 10 mg/kg, ip dosed 3 times per week for 45 days relative to control; type: functional; conditions: MDA-MB-231, ip, 1080 h
[4] = Selectivity index, ratio of LD50 for E6/E7 immortalized human HNME cells to IC50 for human MCF7 cells
MCF7 [5] = test: Inhibition of anchorage-independent colony formation in human MCF7 cells at 5 uM measured upto 21 days by soft agar colony formation assay; type: functional, cell-based
MDA-MB-231 [6] = test: Inhibition of anchorage-independent colony formation in human MDA-MB-231 cells at 5 uM measured upto 21 days by soft agar colony formation assay; type: functional, cell-based
MDA-MB-231 [7] = test: Antiinvasive activity in human MDA-MB-231 cells assessed as reduction in 10% FBS-induced cell invasion at 5 uM by crystal violet staining based matrigel assay relative to control; type: functional; design: scale not given: the % may be the effect or the level left
MDA-MB-468 [8] = test: Antiproliferative activity against human MDA-MB-468 cells assessed as inhibition of cell growth measured after 48 hrs by microplate reader analysis; type: functional, cell-based; conditions: MDA-MB-468, 48 h
MDA-MB-468 [9] = test: Induction of apoptosis in human MDA-MB-468 cells assessed as necrotic cells at 8 uM measured after 24 hrs by AnnexinV/7-AAD staining based flow cytometric analysis (reference value: 0.62%); type: functional
MCF7 [10] = test: Induction of morphological changes in human MCF7 cells assessed as mesenchymal-epithelial transition at 10 uM by inverted microscopic analysis; type: functional, cell-based
MDA-MB-468 [11] = test: Inhibition of anchorage-independent colony formation in human MDA-MB-468 cells at 5 uM measured upto 21 days by soft agar colony formation assay; type: functional, cell-based
MDA-MB-231 [12] = test: Antimigratory activity in human MDA-MB-231 cells assessed as wound diameter measured after 24 hrs by microscopic analysis (reference value: 29.5 +/- 1.95%); type: functional
MDA-MB-468 [13] = test: Induction of apoptosis in human MDA-MB-468 cells assessed as late apoptotic cells at 8 uM measured after 48 hrs by AnnexinV/7-AAD staining based flow cytometric analysis (reference value: 2.83%); type: functional
[14] = Toxicity in athymic nude mouse xenografted with human MDA-MB-231 cells assessed as behavioral change at 10 mg/kg, ip administered for 14 days; type: organism-based; conditions: in vivo, 336 h
MCF7 [15] = test: Antiproliferative activity against human MCF7 cells assessed as inhibition of cell growth measured after 48 hrs by microplate reader analysis; type: functional, cell-based; conditions: MCF7, 48 h
MCF7 [16] = test: Growth inhibition in human MCF7 cells at 10 uM after 48 hrs by MTT assay; type: functional, cell-based
MDA-MB-468 [17] = test: Induction of apoptosis in human MDA-MB-468 cells assessed as viable cells at 8 uM measured after 48 hrs by AnnexinV/7-AAD staining based flow cytometric analysis (reference value: 92.5%); type: functional; conditions: MDA-MB-468, 48 h, read-out: Activity
MDA-MB-468 [18] = test: Induction of apoptosis in human MDA-MB-468 cells assessed as necrotic cells at 8 uM measured after 48 hrs by AnnexinV/7-AAD staining based flow cytometric analysis (reference value: 0.51%); type: functional
MCF7 [19] = test: Antimigratory activity in human MCF7 cells assessed as inhibition of cell motility after 24 hrs by microscopic analysis; type: functional, cell-based; conditions: MCF7, 24 h
[20] = Selectivity index, ratio of LD50 for E6/E7 immortalized human HNME cells to IC50 for human MDA-MB-468 cells
MDA-MB-231 [21] = test: Up regulation of E-cadherin level in human MDA-MB-231 cells up to 10 uM by Western blot analysis; type: functional, cell-based
MDA-MB-468 [22] = test: Antiinvasive activity in human MDA-MB-468 cells assessed as reduction in 10% FBS-induced cell invasion at 5 uM by crystal violet staining based matrigel assay relative to control; type: functional
[23] = Toxicity in athymic nude mouse xenografted with human MDA-MB-231 cells assessed as change in food intake at 10 mg/kg, ip administered measured for 14 days; type: organism-based; conditions: in vivo, 336 h
MCF7 [24] = test: Induction of apoptosis in human MCF7 cells assessed as increase in BAX/Bcl2 expression ratio upto 10 uM measured after 48 hrs by western blot analysis; type: functional, cell-based
MDA-MB-231 [25] = test: Antitumor activity against human MDA-MB-231 cells xenografted in athymic nude mouse assessed as the reduction in tumor weight at 10 mg/kg, ip dosed 3 times per week for 45 days (reference value: 1.58 +/- 0.283 g); type: functional
MDA-MB-231 [26] = test: Induction of morphological changes in human MDA-MB-231 cells assessed as mesenchymal-epithelial transition at 10 uM by inverted microscopic analysis; type: functional, cell-based
MDA-MB-468 [27] = test: Cell cycle arrest in human MDA-MB-468 cells assessed as accumulation at G2/M phase at 5 uM measured after 48 hrs by propidium iodide staining-based flow cytometric analysis relative to control; type: functional
MDA-MB-468 [28] = test: Induction of apoptosis in human MDA-MB-468 cells assessed as increase in BAX/Bcl2 expression ratio upto 10 uM measured after 48 hrs by western blot analysis; type: functional, cell-based
MDA-MB-231 [29] = test: Growth inhibition in human MDA-MB-231 cells at 10 uM after 48 hrs by MTT assay; type: functional, cell-based
MDA-MB-231 [30] = test: Antitumor activity against human MDA-MB-231 cells xenografted in athymic nude mouse assessed as the reduction in tumor volume at 10 mg/kg, ip dosed 3 times per week for 45 days (reference value: 1350 mm3); type: functional
[31] = Toxicity in athymic nude mouse xenografted with human MDA-MB-231 cells assessed as change in body weight at 10 mg/kg, ip administered for 14 days; type: organism-based; conditions: in vivo, 336 h
MDA-MB-468 [32] = test: Induction of apoptosis in human MDA-MB-468 cells assessed as late apoptotic cells at 8 uM measured after 24 hrs by AnnexinV/7-AAD staining based flow cytometric analysis (reference value: 1.86%); type: functional
MDA-MB-231 [33] = test: Antimigratory activity in human MDA-MB-231 cells assessed as inhibition of cell motility after 24 hrs by microscopic analysis; type: functional, cell-based; conditions: MDA-MB-231, 24 h
MDA-MB-231 [34] = test: Down regulation of FAK level in human MDA-MB-231 cells up to 10 uM by Western blot analysis; type: functional, cell-based
MDA-MB-231 [35] = test: Up regulation of pan-cadherin level in human MDA-MB-231 cells up to 10 uM by Western blot analysis; type: functional, cell-based
[36] = Cytotoxicity against E6/E7 immortalized human HNME cells assessed as inhibition of cell growth measured after 48 hrs by microplate reader analysis; type: cell-based; conditions: read-out: LD50
[37] = Toxicity in athymic nude mouse xenografted with human MDA-MB-231 cells assessed as effect on survival rate at 10 mg/kg, ip dosed 5 times per week preincubated for 15 days measured after 30 days; type: organism-based; conditions: in vivo, 720 h
MDA-MB-468 [38] = test: Induction of apoptosis in human MDA-MB-468 cells assessed as early apoptotic cells at 8 uM measured after 24 hrs by AnnexinV/7-AAD staining based flow cytometric analysis (reference value: 3.45%); type: functional
MDA-MB-468 [39] = test: Induction of morphological changes in human MDA-MB-468 cells assessed as mesenchymal-epithelial transition at 10 uM by inverted microscopic analysis; type: functional, cell-based

COc1cccc(C(=O)/C=C/c2ccc(N(CCCl)CCCl)cc2)c1
Ratio LD50/IC50 [1]: 2.66 | Activity (MCF7 [2]): Active | inhibition in vivo at 10 mg/kg (MDA-MB-231 [3]): 46.4% | Ratio LD50/IC50 [4]: 3.31 | colony formation inhibition (activity call) (MCF7 [5]): Active | inhibition (MDA-MB-231 [6]): Active | Activity (MDA-MB-231 [7]): 80% | IC50 (MDA-MB-468 [8]): 7.3 µM | Activity (MDA-MB-468 [9]): 0.61% | Activity (MCF7 [10]): Active | colony formation inhibition (active/inactive) (MDA-MB-468 [11]): Active | inhibition (INH) (MDA-MB-231 [12]): 67.89% | Activity (MDA-MB-468 [13]): 11.1% | Activity [14]: Non-Toxic | IC50 (MCF7 [15]): 6.43 µM | growth inhibition (GI) (MCF7 [16]): Active | viability at 8 µM (MDA-MB-468 [17]): 57.3% | Activity (MDA-MB-468 [18]): 3.63% | IC50 (MCF7 [19]): 2.44 µM | Ratio LD50/IC50 [20]: 2.92 | Activity (MDA-MB-231 [21]): Active | Activity (MDA-MB-468 [22]): Active | Activity [23]: Non-Toxic | Activity (MCF7 [24]): Active | Activity (MDA-MB-231 [25]): 0.88 g | Activity (MDA-MB-231 [26]): Active | Activity (MDA-MB-468 [27]): 66.45% | Activity (MDA-MB-468 [28]): Active | growth inhibition (GI) (MDA-MB-231 [29]): Active | Activity (MDA-MB-231 [30]): 487.26 mm3 | Activity [31]: Non-Toxic | Activity (MDA-MB-468 [32]): 2.13% | IC50 (MDA-MB-231 [33]): 3 µM | Activity (MDA-MB-231 [34]): Active | Activity (MDA-MB-231 [35]): Active | CC50 at 48 h [36]: 21.3 µM | Activity [37]: Non-Toxic | Activity (MDA-MB-468 [38]): 9.04% | Activity (MDA-MB-468 [39]): Active
